Measured values reported in patent publication US20040001818A1, “Methods of inhibiting angiogenesis using NADPH oxidase inhibitors” (priority 2000, published 2004).
Where two headings read alike, the source gives them in different places.

What was measured:
[1] = system: MnSOD mRNA; assay: Northern blot of MnSOD mRNA in HCAECs; type: cell-based, human
Method: Cell culture. Human coronary artery endothelial cells (HCAECs) (Clonetics Corporation, San Diego, Calif., USA) and human pulmonary artery endothelial cells (HPAECs) were grown in Endothelial Growth Medium-2-MV (EGM-2-MV) BulletKit (Clonetics Corporation, San Diego, Calif., USA). At 80-90% confluence, the cells were serum-starved in DMEM containing 0.5% FBS for 24 hours and subsequently treated with VEGF-supplemented medium for the times indicated. Human recombinant VEGF was purchased from PeproTech, Inc. (Rocky Hill, N.J., USA). […] In other studies, the serum-starved cells were pretreated with the MEK inhibitor PD98059 at a final concentration of 50 μM or a specific PKC inhibitor bisindolylmaleimide I (BIM; CalBiochem, San Diego, Calif., USA) at a final concentration of 5 μM for 30 minutes prior to addition of growth factors. An equal amount of DMSO was added to the control plates. Northern blot analyses. Ten micrograms total RNA was loaded on a 0.7% formaldehyde-containing agarose gel. The RNA was transferred to nylon membrane, covalently cross-linked with UV radiation, prehybridized for 6 hours, and hybridized for 18 hours at 42° C. with a [^32P]dCTP-labeled cDNA probe containing MnSOD or eNOS cDNA sequence. The membranes were subsequently stripped and probed with a radiolabeled 18S-ribosome probe. For actinomycin D experiments, HCAEC cells were pretreated with 10 μg/ml actinomycin D (Sigma Chemical Company, St. Louis, Mo., USA) for 30 minutes before addition of VEGF and were harvested for total RNA one hour later.
To determine whether VEGF induced expression of MnSOD in primary endothelial cell cultures, HCAECs and HPAECs were serum starved for 24 hours, treated with 40 ng/ml VEGF for 0, 0.5, 1, 2, 4, 12 and 24 hours, and then harvested for total RNA. Northern blots were performed and probed for human MnSOD. […] The membranes were then stripped and reprobed for eNOS.
To determine whether the response of MnSOD to VEGF was mediated by ROS, HCAECs were serum starved and then treated with VEGF in the absence or presence of inhibitors of NADPH oxidase (DPI, apocynin), xanthine oxidase (allopurinol) and nitric oxide synthase (L-NAME).

[2] = system: MnSOD mRNA; assay: Northern blot of MnSOD mRNA in organs of mice after intraperitoneal VEGF; type: in vivo, mouse; details: four hours after intraperitoneal injection of 20 μg VEGF
Method: Mice and injection of growth factors. Female FVB mice (4 to 8 weeks old; 18 to 22 grams) were obtained from Taconic (Germantown, N.Y., USA). All protocols were approved by the Institutional Animal Care and Use Committee of the Beth Israel Deaconess Medical Center. Mice were injected intraperitoneally with VEGF (1.0 μg/g body weight).
Injection of VEGF into the intraperitoneal cavity of mice results in widespread distribution of the growth factor and phosphorylation of the VEGF receptor, Flk-1. In this study, therefore, organs were removed from mice four hours following intraperitoneal injection of either normal saline or 20 μg VEGF and harvested for total RNA. Northern blot analyses were then carried out to determine whether VEGF induced the expression of a panel of genes, including MnSOD.

[3] = system: MnSOD mRNA; details: HPAEC, 40 ng/ml VEGF
Method: (§1) Cell culture. Human coronary artery endothelial cells (HCAECs) (Clonetics Corporation, San Diego, Calif., USA) and human pulmonary artery endothelial cells (HPAECs) were grown in Endothelial Growth Medium-2-MV (EGM-2-MV) BulletKit (Clonetics Corporation, San Diego, Calif., USA). At 80-90% confluence, the cells were serum-starved in DMEM containing 0.5% FBS for 24 hours and subsequently treated with VEGF-supplemented medium for the times indicated. Human recombinant VEGF was purchased from PeproTech, Inc. (Rocky Hill, N.J., USA). In inhibition studies, the serum-starved HCAEC cells were preincubated with diphenyleneiodonium (DPI), apocynin, allopurinol, L-NAME, or anthrone for one hour and then incubated in the absence or presence of 40 ng/ml VEGF for another hour. In other studies, the serum-starved cells were pretreated with the MEK inhibitor PD98059 at a final concentration of 50 μM or a specific PKC inhibitor bisindolylmaleimide I (BIM; CalBiochem, San Diego, Calif., USA) at a final concentration of 5 μM for 30 minutes prior to addition of growth factors. An equal amount of DMSO was added to the control plates. Northern blot analyses. Ten micrograms total RNA was loaded on a 0.7% formaldehyde-containing agarose gel. The RNA was transferred to nylon membrane, covalently cross-linked with UV radiation, prehybridized for 6 hours, and hybridized for 18 hours at 42° C. with a [^32P]dCTP-labeled cDNA probe containing MnSOD or eNOS cDNA sequence. The membranes were subsequently stripped and probed with a radiolabeled 18S-ribosome probe. For actinomycin D experiments, HCAEC cells were pretreated with 10 μg/ml actinomycin D (Sigma Chemical Company, St. Louis, Mo., USA) for 30 minutes before addition of VEGF and were harvested for total RNA one hour later.
(§2) To determine whether VEGF induced expression of MnSOD in primary endothelial cell cultures, HCAECs and HPAECs were serum starved for 24 hours, treated with 40 ng/ml VEGF for 0, 0.5, 1, 2, 4, 12 and 24 hours, and then harvested for total RNA. Northern blots were performed and probed for human MnSOD. […]

[4] = system: eNOS mRNA; details: either cell type (HCAEC, HPAEC), 40 ng/ml VEGF
Method: as §1, §2

[5] = system: ROS; assay: ROS generation: DCF oxidation by flow cytometry in DCFDA-labeled HCAECs; type: cell-based, human; details: relative to basal rate of control cells
Method: (§3) Western blot analyses. Whole cell protein extracts were prepared from serum-starved HCAECs and HPAECs one hour following addition of growth factor-supplemented or mock-treated media. Cells were washed twice with cold phosphate-buffered saline, harvested with a cell scraper, and lysed in ice-cold lysis buffer containing 20 mM HEPES, pH 7.5, 150 mM NaCl, 1% NP-40, 0.1% SDS, 1 mM EDTA, 1 mM DTT, 0.5 mM phenylmethylsulfonyl fluoride (PMSF), and the protease inhibitor cocktail (Boehringer Mannheim, Mannheim, Germany) for one hour. The resulting lysates were centrifuged at 10,000× g for 20 minutes and the supernatants were saved as whole cell protein extracts. Forty micrograms of protein were separated by 10% SDS-PAGE and electrotransferred to nitrocellulose membranes. Membranes were blocked with 5% nonfat dry milk in Tris-buffered saline with 0.1% Tween 20 for one hour at room temperature. The blot was incubated with primary rabbit polyclonal anti-MnSOD IgG (1:1000 dilution) (Santa Cruz Biotechnology Inc., Santa Cruz, Calif., USA) overnight at 4° C., followed by secondary antibody goat-anti-rabbit horseradish peroxidase conjugate (1:1000 dilution) (Pierce, Rockford, Ill., USA). The blot was washed extensively between each incubation step. Peroxidase activity was visualized with an enhanced chemiluminescense substrate system (Amersham, Arlington Heights, Ill., USA). Membranes were stripped and probed for eNOS and β-actin. Flow cytometry. Endothelial cells were labeled with DCFDA and oxidation of DCF was measured by flow cytometry.
To test whether VEGF increases ROS production in endothelial cells, HCAECs were labeled with […] DCFDA and oxidation of DCF was measured by flow cytometry. […] PMS is known to induce free oxygen radicals.

[6] = system: eNOS protein; details: 40 ng/ml VEGF, any time point 0.5-24 hours
Method: as §3, with “Peroxidase activity was visualized with an enhanced chemiluminescense substrate system (Amersham, Arlington Heights, Ill., USA). Membranes were stripped and probed for eNOS and β-actin. Flow cytometry.” left out

[7] = system: MnSOD protein; details: 40 ng/ml VEGF; for MnSOD protein: 0.5-24 hours
Method: as §3
Serum-starved HCAECs and HPAECs were treated with 40 ng/ml VEGF for 0.5-24 hours and then harvested for total protein.

VEGF
time of peak MnSOD mRNA levels ([1]; HCAEC, 40 ng/ml VEGF): 4 h
MnSOD mRNA levels ([1]; HCAEC, 40 ng/ml VEGF, between one hour and 24 hours): increased
VEGF concentration of maximal MnSOD induction ([1]; dose-response 0, 1, 5, 10, 100 ng/ml VEGF): 100 ng/mL
MnSOD mRNA levels in other tissues (lung, brain, liver, spleen, skeletal muscle) [2]: not
MnSOD mRNA levels in the heart and the kidney [2]: increased
time of peak MnSOD mRNA levels [3]: 4 h
MnSOD mRNA levels ([3]; between 2 and 24 hours): increased
eNOS mRNA induction [4]: not induced
DCF oxidation (ROS production) [5]: no change
eNOS protein levels [6]: did not increase
time of maximal MnSOD protein levels ([7]; HCAECs): 12 to 24 h
MnSOD protein ([7]; HCAECs): significantly induced
time of maximal MnSOD protein levels ([7]; HPAECs): 12 to 24 h
MnSOD protein ([7]; HPAECs): significantly induced
